Measured values as given in patent US20190315775A1, “MODIFIED […] AND PHARMACEUTICAL COMPOSITION HAVING SAME AS ACTIVE INGREDIENT” (KEIO UNIVERSITY, priority 2016, published 2019).

Tests used:
[1] = tested on: MUM24 cells; test: Cell cycle, DNA content by flow cytometry; assay type: cell-based, human; conditions: MUM24, 3 μM, 12, 24 and 36 hours
Protocol: The present inventors have reported that when HeLa cells of a human cervical cancer-derived cell line are treated with TC11, multipolarization and then multinucleation take place (Shiheido, H. et al., PLoS One, 7: e38878, 2012). The present inventors have also reported in the same paper α-tubulin and NPM1 as binding molecules for TC11. Next, intracellular DNA content was measured using flow cytometry in order to examine the effects of TC11 and its derivative, PEG11(E)-TC11 on cell cycle. More specifically, MUM24 was adjusted at 4.0×10^5 cells/mL, 1.95 mL each of MUM24 was seeded to a 6-well plate. From the next day, TC11 and PEG11(E)-TC11 were added in such a manner that the final concentrations were 0 and 3 μM, respectively, and then cells were cultured at 37° C. for 12, 24, and 36 hours. Each cell was collected, and then washed with PBS. 70% EtOH ([…]) was added and then the resultant was left to stand overnight at −30° C. After washing with PBS, […] of citrate-phosphate buffer was added, and then the resultant was left to stand at room temperature for 30 minutes, thereby eluting fragmented DNA. […] Fluorescence intensity was measured using BD FACS Calibur (Trademark) (Becton, Dickinson and company, New Jersey, USA). Wavelengths for measurement were an excitation wavelength of 488 nm, and a fluorescence wavelength of 610±10 nm.

[2] = tested on: high-risk MM cells (MUM24); test: Apoptosis induction, Annexin V/PI flow cytometry; assay type: cell-based, human; conditions: MUM24, 10 μM, 24, 48 and 72 hours
Protocol: For observation of apoptosis induction caused by drugs, TC11 and PEG11(E)-TC11, one type of MM cells, MUM24 cells were treated with TC11 and PEG11(E)-TC11, Annexin V/PI staining was performed, and then analysis was conducted using a flow cytometer. More specifically, MUM24 was adjusted at 2.0×10^5 cells/mL, and then 1.95 mL each thereof was seeded to a 6-well plate. From the next day, TC11 and PEG11(E)-TC11 were added in such a manner that the final concentrations were 0, and 10 μM, and then cells were cultured at 37° C. for 24, 48, and 72 hours. Each cell (1.5 ml each) was collected, and then washed twice with Phosphate Buffered Saline (PBS, Sigma-Aldrich). Subsequently, each resultant was suspended again in a solution prepared by adding 5 μL of Annexin V-FITC and 5 μL of Propidium Iodide (PI) to 500 μL of 1×Binding Buffer in Annexin V-FITC Apoptosis Detection Kit (Bio Vision, California, USA), and then left to stand in the dark for 5 minutes. Fluorescence intensity was measured using BD™ LSR II Flow Cytometer (Becton, Dickinson and company, New Jersey, USA). Wavelengths to be measured were excitation wavelength of 488 nm, and fluorescence wavelengths of 530±15 nm for Annexin V-FITC and 610±10 nm for PI.

[3] = tested on: MDA-MB-231 (human breast cancer cells); test: WST-1 proliferation assay (Example 10), MDA-MB-231; assay type: cell-based; conditions: WST-1, 48 hours
Protocol: Cancer cells used herein were KMS34 (human myeloma cells), HeLa (human cervical cancer cells), HCT116 (human colon cancer cells; p53+/+), KATOIII (human stomach cancer cells), MDA-MB-231 (human breast cancer cells), HT-29 (human colon adenocarcinoma cells), PANC-1 (human pancreatic cancer cells), and Li-7 (human liver cancer cells). Proliferation assay of various cancer cells was performed by the WST-1 method (Cook, J A. & Mitchell, J B., Anal. Biochem., 179, 1-7, 1984) as follows. One μ1 each of PEG11(E)-TC11 and PEG11(O)-TC11 prepared in advance at target concentrations was added into each well of a 96-well microplate. Medium was added to the wells at 50 μl per well, and then mixed by tapping lightly the plate. Subsequently, KMS34 was prepared at a concentration of 5×10^5 cells/ml, and cells other than KMS34 were prepared at a concentration of 2×10^5 cells/ml. Cells were seeded at 50 μl per well (2.5×10^4 cells, 1×10^4 cells), and then incubated in a CO2 incubator (37° C., 5% CO2) for 48 hours. […] Subsequently, the plate was shaken with a plate reader for 1 minute, and then absorbance was measured at 450 nm. At this time, absorbance was also measured at 595 nm as a reference wavelength. The net absorbance was obtained by subtracting the absorbance at the reference wavelength from the absorbance at 450 nm.

[4] = tested on: bone marrow stromal cell-derived normal cells (WT); test: WST-1 proliferation assay (Example 11), normal cells; assay type: cell-based; conditions: WST-1, 48 hours, FIG. 6
Protocol: Proliferation assay of cancer cells and normal cells was performed using WST-1 as follows. One μ1 each of PEG11(E)-TC11 and TC11 prepared at target concentrations was added to each well of a 96-well microplate. Medium was added to the wells at 50 μl per well, and then mixed by tapping lightly the plate. Next, high-risk MM cells (KMS34) prepared at 5×10^5 cells/ml and bone marrow stromal cell-derived normal cells (WT) prepared at 2×10^5 cells/ml were seeded at 50 μl (2.5×10^4 cells and 1×10^4 cells, respectively) per well, and then incubated in a CO2 incubator (37° C., 5% CO2) for 48 hours. Ten (10) μ1 each of cell proliferation reagent WST-1 (Roche) was added to each well after incubation, and then the resultants were mixed by lightly tapping the plate, followed by 1 hour of reaction in the CO2 incubator. Subsequently, the plate was shaken with a plate reader for 1 minute, and then absorbance was measured at 450 nm. At this time, absorbance was also measured at 595 nm as a reference wavelength. The net absorbance was obtained by subtracting the absorbance at the reference wavelength from the absorbance at 450 nm.

| IC50 [3] [µM] | SMILES | Effect on cell cycle (proportion of tetraploid cells) [1] | Apoptosis induction (Annexin V+/PI− and Annexin V+/PI+ fractions) [2] | Proliferation inhibitory activity against bone marrow stromal cell-derived normal cells (WT) [4] |
| --- | --- | --- | --- | --- |
| 11 | COCCOCCOCCOCCOCCOCCOCCOCCOCCOCCOCCOCCC(=O)OCCOc1cc2c(cc1N)C(=O)N(c1c(C(C)C)cccc1C(C)C)C2=O [PEG11(E)-TC11] | induce cell death by causing G2/M phase arrest | clearly induce apoptosis | no proliferation inhibitory activity |
| 80 | COCCOCCOCCOCCOCCOCCOCCOCCOCCOCCOCCOCCOc1cc2c(cc1N)C(=O)N(c1c(C(C)C)cccc1C(C)C)C2=O [PEG11(O)-TC11] |  |  |  |
|  | CC(C)c1cccc(C(C)C)c1N1C(=O)c2ccc(N)cc2C1=O [TC11, 2-(2,6-di-isopropylphenyl)-5-amino-1H-isoindole-1,3-dione, reference compound] | induce cell death by causing G2/M phase arrest | clearly induce apoptosis | no proliferation inhibitory activity |
